Test results as given in PubChem BioAssay AID1745844 (Carcinogenic Potency Database (CPDB), 2022).
Where “and” joins values, the source holds several entries; their conditions need not be identical. Identical values can stand only once. Calls of active or inactive are those of the source. No rule for the calls is given here.

System: rodent lifetime carcinogenesis bioassay, tumor incidence TD50
Assay: carcinogenic potency in animals, long-term in vivo studies, CPDB compilation (AID 1745844)

For Nc1c(F)c(N)c(F)c(F)c1F, the TD50 (mouse, strain CD-1 HaM/ICR, females, in feed, site: liver, lesion: several types, types named in the paper, dosed 77 weeks, study length 94 weeks) was 6500 mg/kg/day (inactive), the carcinogen call (mouse, strain CD-1 HaM/ICR, females, in feed, site: lung, lesion: several types, types named in the paper, dosed 77 weeks, study length 94 weeks) was “negative (inactive)” and the TD50 (mouse, strain CD-1 HaM/ICR, males, in feed, site: any site (literature study), lesion: several types, types named in the paper, dosed 77 weeks, study length 94 weeks) was 331 mg/kg/day. The TD50 (mouse, strain CD-1 HaM/ICR, males, in feed, site: liver, lesion: hepatoma, dosed 77 weeks, study length 94 weeks) was 86.3 mg/kg/day and 109 mg/kg/day, the TD50 (mouse, strain CD-1 HaM/ICR, males, in feed, site: liver, lesion: several types, types named in the paper, dosed 77 weeks, study length 94 weeks) was 78.3 mg/kg/day and the TD50 (mouse, strain CD-1 HaM/ICR, males, in feed, site: lung, lesion: several types, types named in the paper, dosed 77 weeks, study length 94 weeks) was 1130 mg/kg/day (inactive). The TD50 (rat, strain Charles River CD (Sprague-Dawley), males, in feed, site: any site (literature study), lesion: several types, types named in the paper, dosed 77 weeks, study length 98 weeks) was 14.6 mg/kg/day (inactive) and the carcinogen call (rat, strain Charles River CD (Sprague-Dawley), males, in feed, site: liver, lesion: several types, types named in the paper, dosed 77 weeks, study length 98 weeks) was “negative (inactive)”.
Compound Clc1cc2c(cc1Cl)Oc1cc(Cl)c(Cl)cc1O2 has a TD50 (mouse, strain B6C3F1, females, by gavage, site: all sites, lesion: leukemia + lymphoma, dosed 104 weeks, study length 104 weeks) of 0.000709 mg/kg/day, a TD50 (mouse, strain B6C3F1, females, by gavage, site: all sites, lesion: lymphoma, histiocytic type, dosed 104 weeks, study length 104 weeks) of 0.000705 mg/kg/day and a TD50 (mouse, strain B6C3F1, females, by gavage, site: all sites, lesion: lymphoma, dosed 104 weeks, study length 104 weeks) of 0.000682 mg/kg/day. For the same compound, the TD50 (mouse, strain B6C3F1, females, by gavage, site: any site (literature study), lesion: several types, types named in the paper, dosed 104 weeks, study length 104 weeks) was 0.000494 mg/kg/day, the TD50 (mouse, strain B6C3F1, females, by gavage, site: liver + thyroid gland, lesion: hepatocellular adenoma + hepatocellular carcinoma + follicular-cell adenoma, dosed 104 weeks, study length 104 weeks) was 0.000526 mg/kg/day and the TD50 (mouse, strain B6C3F1, females, by gavage, site: liver, lesion: hepatocellular adenoma + hepatocellular carcinoma + neoplastic nodule, dosed 104 weeks, study length 104 weeks) was 0.000756 mg/kg/day. It also gave a TD50 (mouse, strain B6C3F1, females, by gavage, site: liver, lesion: hepatocellular adenoma + hepatocellular carcinoma, dosed 104 weeks, study length 104 weeks) of 0.000756 mg/kg/day, a TD50 (mouse, strain B6C3F1, females, by gavage, site: liver, lesion: hepatocellular carcinoma, dosed 104 weeks, study length 104 weeks) of 0.0013 mg/kg/day and a TD50 (mouse, strain B6C3F1, females, by gavage, site: subcutaneous tissue, lesion: fibrosarcoma, dosed 104 weeks, study length 104 weeks) of 0.00172 mg/kg/day. It also gave a TD50 (mouse, strain B6C3F1, females, by gavage, site: thyroid gland, lesion: follicular-cell adenoma, dosed 104 weeks, study length 104 weeks) of 0.00159 mg/kg/day, a TD50 (mouse, strain B6C3F1, males, by gavage, site: any site (literature study), lesion: several types, types named in the paper, dosed 104 weeks, study length 104 weeks) of 0.000141 mg/kg/day and a TD50 (mouse, strain B6C3F1, males, by gavage, site: liver, lesion: hepatocellular adenoma + hepatocellular carcinoma + neoplastic nodule, dosed 104 weeks, study length 104 weeks) of 8.68e-05 mg/kg/day. It also gave a TD50 (mouse, strain B6C3F1, males, by gavage, site: liver, lesion: hepatocellular adenoma + hepatocellular carcinoma, dosed 104 weeks, study length 104 weeks) of 8.68e-05 mg/kg/day, a TD50 (mouse, strain B6C3F1, males, by gavage, site: liver, lesion: hepatocellular adenoma, dosed 104 weeks, study length 104 weeks) of 0.000271 mg/kg/day and a TD50 (mouse, strain B6C3F1, males, by gavage, site: liver, lesion: hepatocellular carcinoma, dosed 104 weeks, study length 104 weeks) of 0.000147 mg/kg/day. The TD50 (mouse, strain B6C3F1, males, by gavage, site: lung, lesion: alveolar/bronchiolar adenoma + alveolar/bronchiolar carcinoma, dosed 104 weeks, study length 104 weeks) was 0.000198 mg/kg/day, the TD50 (mouse, strain B6C3F1, males, by gavage, site: lung, lesion: alveolar/bronchiolar adenoma, dosed 104 weeks, study length 104 weeks) was 0.000219 mg/kg/day and the carcinogen call (mouse, strain Swiss/H/Riop, males, by gavage, site: liver, lesion: several types, types named in the paper, dosed 52 weeks, study length 104 weeks) was “positive”. For the same compound, the carcinogen call (mouse, strain Swiss/H/Riop, males, by gavage, site: lung, lesion: one or several types, types not named, dosed 52 weeks, study length 104 weeks) was “negative (inactive)”, the TD50 (rat, strain Osborne-Mendel, females, by gavage, site: any site (literature study), lesion: several types, types named in the paper, dosed 104 weeks, study length 105 weeks) was 0.00158 mg/kg/day and the TD50 (rat, strain Osborne-Mendel, females, by gavage, site: liver, lesion: hepatocellular adenoma + hepatocellular carcinoma + neoplastic nodule, dosed 104 weeks, study length 105 weeks) was 0.000127 mg/kg/day. For the same compound, the TD50 (rat, strain Osborne-Mendel, females, by gavage, site: liver, lesion: hepatocellular carcinoma + neoplastic nodule, dosed 104 weeks, study length 105 weeks) was 0.000127 mg/kg/day, the TD50 (rat, strain Osborne-Mendel, females, by gavage, site: liver, lesion: neoplastic nodule, dosed 104 weeks, study length 105 weeks) was 0.000154 mg/kg/day and the TD50 (rat, strain Osborne-Mendel, males, by gavage, site: adrenal gland, lesion: cortical adenoma, dosed 104 weeks, study length 105 weeks) was 1.21e-05 mg/kg/day. The TD50 (rat, strain Osborne-Mendel, males, by gavage, site: any site (literature study), lesion: several types, types named in the paper, dosed 104 weeks, study length 105 weeks) was 0.000133 mg/kg/day, the TD50 (rat, strain Osborne-Mendel, males, by gavage, site: liver, lesion: hepatocellular adenoma + hepatocellular carcinoma + neoplastic nodule, dosed 104 weeks, study length 105 weeks) was 0.000391 mg/kg/day and the TD50 (rat, strain Osborne-Mendel, males, by gavage, site: liver, lesion: hepatocellular carcinoma + neoplastic nodule, dosed 104 weeks, study length 105 weeks) was 0.000391 mg/kg/day. It also gave a TD50 (rat, strain Osborne-Mendel, males, by gavage, site: liver, lesion: neoplastic nodule, dosed 104 weeks, study length 105 weeks) of 0.000391 mg/kg/day, a TD50 (rat, strain Osborne-Mendel, males, by gavage, site: subcutaneous tissue, lesion: fibroma, dosed 104 weeks, study length 105 weeks) of 0.000169 mg/kg/day and a TD50 (rat, strain Osborne-Mendel, males, by gavage, site: thyroid gland, lesion: follicular-cell adenoma + follicular-cell carcinoma, dosed 104 weeks, study length 105 weeks) of 0.000101 mg/kg/day. It also gave a TD50 (rat, strain Osborne-Mendel, males, by gavage, site: thyroid gland, lesion: follicular-cell adenoma, dosed 104 weeks, study length 105 weeks) of 0.000113 mg/kg/day, a TD50 (rat, strain Sprague-Dawley Spartan, females, in feed, site: hard palate/nasal turbinates, lesion: squamous-cell carcinoma, stratified, dosed 103 weeks, study length 103 weeks) of 0.000205 mg/kg/day and a TD50 (rat, strain Sprague-Dawley Spartan, females, in feed, site: liver, lesion: hepatocellular carcinoma, dosed 103 weeks, study length 103 weeks) of 6.51e-05 mg/kg/day. It also gave a TD50 (rat, strain Sprague-Dawley Spartan, females, in feed, site: liver, lesion: hepatocellular hyperplastic nodule, dosed 103 weeks, study length 103 weeks) of 6.67e-06 mg/kg/day, a TD50 (rat, strain Sprague-Dawley Spartan, females, in feed, site: liver, lesion: several types, types named in the paper, dosed 103 weeks, study length 103 weeks) of 1.49e-05 mg/kg/day and a TD50 (rat, strain Sprague-Dawley Spartan, females, in feed, site: lung, lesion: squamous-cell carcinoma, keratinized, dosed 103 weeks, study length 103 weeks) of 0.000192 mg/kg/day. For the same compound, the TD50 (rat, strain Sprague-Dawley Spartan, males, in feed, site: adrenal gland, lesion: cortical adenoma, dosed 103 weeks, study length 103 weeks) was 0.000217 mg/kg/day, the TD50 (rat, strain Sprague-Dawley Spartan, males, in feed, site: hard palate/nasal turbinates, lesion: squamous-cell carcinoma, stratified, dosed 103 weeks, study length 103 weeks) was 0.000393 mg/kg/day and the TD50 (rat, strain Sprague-Dawley Spartan, males, in feed, site: tongue, lesion: squamous-cell carcinoma, stratified, dosed 103 weeks, study length 103 weeks) was 0.000628 mg/kg/day. For the same compound, the TD50 (rat, strain Sprague-Dawley, males, in feed, site: liver, lesion: several types, types named in the paper, dosed 78 weeks, study length 95 weeks) was 8.31e-05 mg/kg/day and the TD50 (rat, strain Sprague-Dawley, males, in feed, site: lung, lesion: squamous-cell tumor, dosed 78 weeks, study length 95 weeks) was 7.96e-05 mg/kg/day.
CC was tested, and the carcinogen call (mouse, strain B6C3F1, females, in feed, site: any site (literature study), lesion: several types, types named in the paper, dosed 103 weeks, study length 105 weeks) was “negative (inactive)”, the TD50 (mouse, strain B6C3F1, females, in feed, site: forestomach, lesion: several types, types named in the paper, dosed 96 weeks, study length 106 weeks) was 111000 mg/kg/day (inactive) and the TD50 (mouse, strain B6C3F1, females, in feed, site: liver, lesion: hepatocellular adenoma + hepatocellular carcinoma + neoplastic nodule, dosed 103 weeks, study length 105 weeks) was 31100 mg/kg/day. For the same compound, the carcinogen call (mouse, strain B6C3F1, females, in feed, site: liver, lesion: several types, types named in the paper, dosed 96 weeks, study length 106 weeks) was “negative (inactive)”, the TD50 (mouse, strain B6C3F1, females, in feed, site: lung, lesion: alveolar/bronchiolar adenoma + alveolar/bronchiolar carcinoma, dosed 103 weeks, study length 105 weeks) was 24700 mg/kg/day and the carcinogen call (mouse, strain B6C3F1, females, in feed, site: lung, lesion: several types, types named in the paper, dosed 96 weeks, study length 106 weeks) was “negative (inactive)”. For the same compound, the TD50 (mouse, strain B6C3F1, males, in feed, site: all sites, lesion: hemangioma, dosed 103 weeks, study length 105 weeks) was 80800 mg/kg/day (inactive), the TD50 (mouse, strain B6C3F1, males, in feed, site: any site (literature study), lesion: several types, types named in the paper, dosed 103 weeks, study length 105 weeks) was 46000 mg/kg/day and the TD50 (mouse, strain B6C3F1, males, in feed, site: forestomach, lesion: squamous-cell papilloma, dosed 96 weeks, study length 106 weeks) was 240000 mg/kg/day (inactive). The carcinogen call (mouse, strain B6C3F1, males, in feed, site: liver, lesion: several types, types named in the paper, dosed 96 weeks, study length 106 weeks) was “negative (inactive)”, the carcinogen call (mouse, strain B6C3F1, males, in feed, site: lung, lesion: several types, types named in the paper, dosed 96 weeks, study length 106 weeks) was “negative (inactive)” and the TD50 (rat, strain Fischer 344, females, in feed, site: any site (literature study), lesion: several types, types named in the paper, dosed 103 weeks, study length 105 weeks) was 8310 mg/kg/day (inactive). The TD50 (rat, strain Fischer 344, males, in feed, site: any site (literature study), lesion: several types, types named in the paper, dosed 103 weeks, study length 105 weeks) was 7970 mg/kg/day (inactive) and the TD50 (rat, strain Fischer 344, males, in feed, site: liver, lesion: hepatocellular adenoma + hepatocellular carcinoma + neoplastic nodule, dosed 103 weeks, study length 105 weeks) was 33500 mg/kg/day.
